Test results published in patent US9487489B2, “Halogen-substituted pyrazole derivatives as pest-control agents” (BAYER CROPSCIENCE AKTIENGESELLSCHAFT, priority 2013, dated 2016).
Values joined by “and” are separate entries in the source; they are usually repeats but may differ in a detail not shown here. Equal values may be shown once.

Tests used:
[1] = test system: adult houseflies (Musca domestica); test: Musca domestica test (MUSCDO); type: in vivo; details: application rate 100 ppm; after 2 days
In short: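 Compound dissolved in DMSO and diluted with water to the test concentration, applied with sugar solution on a sponge; 10 adult houseflies per vessel. Mortality scored after 2 days as % kill (100% all dead, 0% none).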

[2] = test system: engorged adult female cattle ticks (Boophilus microplus); test: Boophilus microplus injection test (BOOPMI Inj); type: in vivo; details: application rate 20 μg/animal; injection into abdomen; assessed after 7 days
In short: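 DMSO solution of compound (1 μl) injected into the abdomen of 5 engorged adult female ticks, which are then held in a climate-controlled room. After 7 days, efficacy is scored from laying of fertile eggs, with unclear eggs kept until larval hatch (~42 days); 100% means no fertile eggs, 0% all fertile.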

[3] = logP determination by HPLC on a reversed-phase column (C18), EEC Directive 79/831 Annex V.A8; type: physicochemical
In short: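 Retention on a C18 reversed-phase column (Zorbax Eclipse Plus, 1.8 micron) was used, eluting with acetonitrile/water, each containing formic acid. The gradient ran from 10% to 95% acetonitrile over 4.25 min, then held 1.25 min, at 55° C and 2.0 ml/min, with MS detection.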

[4] = test system: adult castor bean ticks (Ixodes ricinus); test: Ixodes ricinus in vitro contact test with adult castor bean ticks (T3); details: after 48 h
Experimental: T3. Ixodes ricinus-in vitro Contact Tests with Adult Castor Bean Ticks
For the coating of the test tubes, initially 9 mg of active compound are dissolved in 1 ml of acetone p.a. and then diluted with acetone p.a. to the desired concentration. By turning and rocking on an orbital shaker (2 h of rocking rotation at 30 rpm), 250 μl of the solution are distributed homogeneously on the internal walls and the floor of a 25 ml test tube. At 900 ppm active compound solution and 44.7 cm^2 internal surface, an area dose of 5 μg/cm^2 is achieved for homogeneous distribution.
After evaporation of the solvent, the tubes are populated with 5-10 adult castor bean ticks (Ixodes ricinus), sealed with a perforated plastic lid and incubated in a horizontal position in the dark at 22° C. and 90% humidity in a climate-controlled cabinet. After 48 h, the efficacy is determined. To this end, the ticks are knocked to the floor of the tube and incubated on a hotplate at 45-50° C. for at most 5 min. Ticks which remain motionless on the floor or move in an uncoordinated manner such that they are not able to deliberately avoid the heat by climbing upwards are considered to be dead or moribund.
An efficacy of 100% means that all ticks were dead or moribund. 0% efficacy means that none of the ticks had been damaged.

[5] = test system: larvae of the mustard beetle (Phaedon cochleariae); test: Phaedon cochleariae spray test (PHAECO); type: in vivo; details: application rate 100 g/ha; Chinese cabbage leaf discs; after 7 days
In short: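 Compound dissolved in acetone/dimethylformamide with alkylaryl polyglycol ether emulsifier, made up in water containing 1000 ppm emulsifier, then diluted to test concentrations and sprayed against mustard beetle larvae. Efficacy (% larvae killed) scored after 7 days.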

[6] = test system: adult cat fleas (Ctenocephalides felis); test: Ctenocephalides felis oral test (CTECFE); type: in vivo; details: application rate 100 ppm in citrated cattle blood; after 2 days
In short: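 About 20 unfed adult cat fleas fed through parafilm membrane on citrated cattle blood containing compound (DMSO stock diluted in blood to test concentration). Kill % scored after 2 days (100% = all fleas dead).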

[7] = test system: caterpillars of the armyworm (Spodoptera frugiperda); test: Spodoptera frugiperda spray test (SPODFR); type: in vivo; details: application rate 100 g/ha; maize leaf discs; after 7 days
In short: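 Maize leaf discs sprayed with compound in acetone/DMF with alkylaryl polyglycol ether emulsifier (1000 ppm) in water, dried, then infested with armyworm caterpillars. Mortality (%) scored after 7 days; 100% = all caterpillars killed, 0% = none killed.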

[8] = test system: bont tick nymphs (Amblyomma hebraeum); details: after 48 h
[9] = test system: cattle ticks (Boophilus microplus) Parkhurst strain, SP-resistant; test: Boophilus microplus dip test (BOOPMI Dip); type: in vivo; details: application rate 100 ppm, assessed after 7 days
In short: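 Adult engorged female SP-resistant Parkhurst ticks (8–10) were fully immersed in compound diluted in water from a DMSO solution, then kept in a climate-controlled room. After 7 days, fertile egg-laying was scored, with larval hatching checked at about 42 days; 100% efficacy means no fertile eggs.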

[10] = HPLC, reversed-phase C18, acetonitrile (0.1% formic acid)/water (0.09% formic acid) gradient
[11] = HPLC on reversed-phase column (C18), acetonitrile/water with formic acid, EEC Directive 79/831 Annex V.A8

Cn1nc(C(F)(F)C(F)(F)F)c(C(F)(F)F)c1-n1cnc(-c2ccc(Cl)c(C(=O)NC3CC3)c2)c1 [Ib-3]
efficacy (kill in %) [1]: 100% | efficacy (laying of fertile eggs) [2]: 100% | logP [3, 10]: 3.43 | efficacy (dead or moribund ticks) ([4]; application rate 1 μg/cm^2): 80% | efficacy (dead or moribund ticks) ([4]; application rate 5 μg/cm^2): 80% | efficacy in % [5]: 100% | efficacy (kill in %) [6]: 100% | efficacy in % [7]: 100% | efficacy (dead or moribund ticks) [8]: 100% and 80% | efficacy (laying of fertile eggs) [9]: 100%

Cn1nc(C(F)(F)C(F)(F)F)c(C(F)(F)F)c1-n1ccc(-c2ccc(Cl)c(C(=O)NC3CC3)c2)c1 [Ia-2]
efficacy (kill in %) [1]: 90% | efficacy (laying of fertile eggs) [2]: 100% | logP [3, 10]: 4.08 | efficacy (dead or moribund ticks) ([4]; application rate 1 μg/cm^2): 100% | efficacy (dead or moribund ticks) ([4]; application rate 5 μg/cm^2): 100% | efficacy in % [5]: 100% | efficacy (kill in %) [6]: 100% | efficacy in % [7]: 100% | efficacy (dead or moribund ticks) [8]: 100% | efficacy (laying of fertile eggs) [9]: 100%

Cn1nc(C(F)(F)C(F)(F)F)c(C(F)(F)F)c1-n1cc(-c2ccc(Br)c(C(=O)NC3(C#N)CC3)c2)cn1 [Ic-34]
efficacy (kill in %) [1]: 100% | efficacy (laying of fertile eggs) [2]: 100% | logP [3, 11]: 3.74 | efficacy in % [5]: 100% | efficacy (kill in %) [6]: 100% | efficacy in % [7]: 100% | efficacy (laying of fertile eggs) [9]: 100%

Cn1nc(C(F)(F)C(F)(F)F)c(C(F)(F)F)c1-n1cc(-c2ccc([N+](=O)[O-])c(C(=O)NC3CC3)c2)cn1 [Ic-66]
efficacy (kill in %) [1]: 100% | efficacy (laying of fertile eggs) [2]: 100% | logP [3, 11]: 3.53 | efficacy in % [5]: 100% | efficacy (kill in %) [6]: 100% | efficacy in % [7]: 100% | efficacy (laying of fertile eggs) [9]: 100%

Cn1nc(C(F)(F)C(F)(F)F)c(C(F)(F)F)c1-n1cc(-c2ccc(F)c(C(=O)NC3CC3)c2)cn1 [Ic-37]
efficacy (kill in %) [1]: 100% | efficacy (laying of fertile eggs) [2]: 100% | logP [3, 11]: 3.79 | efficacy (dead or moribund ticks) ([4]; application rate 1 μg/cm^2): 100% | efficacy (dead or moribund ticks) ([4]; application rate 5 μg/cm^2): 100% | efficacy in % [5]: 100% | efficacy (kill in %) [6]: 100% | efficacy in % [7]: 100% | efficacy (dead or moribund ticks) [8]: 100% | efficacy (laying of fertile eggs) [9]: 100%

Cn1nc(C(F)(F)C(F)(F)F)c(C(F)(F)F)c1-n1cc(-c2ccc(F)c(C(=O)NC3(C#N)CC3)c2)cn1 [Ic-36]
efficacy (kill in %) [1]: 100% | efficacy (laying of fertile eggs) [2]: 100% | logP [3, 11]: 3.69 | efficacy in % [5]: 100% | efficacy (kill in %) [6]: 100% | efficacy in % [7]: 100% | efficacy (laying of fertile eggs) [9]: 100%

Cn1nc(C(F)(F)C(F)(F)F)c(C(F)(F)F)c1-n1cc(-c2ccc(Cl)c(C(=O)NC3(C(N)=S)CC3)c2)cn1 [Ic-11]
efficacy (kill in %) [1]: 100% | efficacy (laying of fertile eggs) [2]: 100% | logP [3, 11]: 3.59 | efficacy (dead or moribund ticks) ([4]; application rate 1 μg/cm^2): 80% | efficacy (dead or moribund ticks) ([4]; application rate 5 μg/cm^2): 100% | efficacy in % [5]: 100% | efficacy (kill in %) [6]: 100% | efficacy in % [7]: 100% | efficacy (dead or moribund ticks) [8]: 100% | efficacy (laying of fertile eggs) [9]: 100%

Cn1nc(C(F)(F)C(F)(F)F)c(C(F)(F)F)c1-n1cc(-c2ccc(Cl)c(C(=O)NCC(F)(F)F)c2)cn1 [Ic-23]
efficacy (kill in %) [1]: 100% | efficacy (laying of fertile eggs) [2]: 100% | logP [3, 11]: 4.17 | efficacy (dead or moribund ticks) ([4]; application rate 1 μg/cm^2): 100% | efficacy (dead or moribund ticks) ([4]; application rate 5 μg/cm^2): 100% | efficacy in % [5]: 100% | efficacy (kill in %) [6]: 100% | efficacy in % [7]: 100% | efficacy (dead or moribund ticks) [8]: 100% | efficacy (laying of fertile eggs) [9]: 100%
